The test system of this assay is P388 leukemia ip, CD2F1 mice, survival T/C. As to the kind of experiment: NCI In Vivo Anticancer Drug Screen. Data for tumor model P388 Leukemia (intraperitoneal) in CD2F1 (CDF1) mice. As to conditions: endpoint: median survival time, higher = longer survival. Summed up: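 Mice carrying the transplanted tumor received test compound or vehicle. Survival was recorded in each group, and the value is the treated-group measurement divided by that of the vehicle-treated control group.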

Setting [1] is: dose: 60.0 mg/kg/injection, schedule: Q01DX005 (ip), vehicle: saline with Tween-80.
[2] abbreviates: dose: 120.0 mg/kg/injection, schedule: Q01DX005 (ip), vehicle: saline with Tween-80.
Where [3] appears, read: dose: 240.0 mg/kg/injection, schedule: Q01DX005 (ip), vehicle: saline with Tween-80.
The mark [4] stands for this setting: dose: 50.0 mg/kg/injection, schedule: Q01DX009 (ip), vehicle: saline.
Where [5] appears, read: dose: 100.0 mg/kg/injection, schedule: Q01DX009 (ip), vehicle: saline.
Setting [6] is: dose: 50.0 mg/kg/injection, schedule: Q01DX005 (ip), vehicle: saline with Tween-80.
Where [7] appears, read: dose: 100.0 mg/kg/injection, schedule: Q01DX005 (ip), vehicle: saline with Tween-80.
Setting [8] is: dose: 200.0 mg/kg/injection, schedule: Q01DX005 (ip), vehicle: saline with Tween-80.

Consider 22 compounds from PubChem BioAssay AID330 (DTP/NCI, 2004).

Where “and” joins values, the source holds several entries; their conditions need not be identical. Equal values may be shown once. Inconclusive results and toxic doses are left out.

Regarding `CCC[CH2][Sn]([F])([F])[CH2]CCC`, the T/C was 107 % of control (dose: 6.25 mg/kg/injection, schedule: Q04DX003 (ip), vehicle: saline); 114 % of control (dose: 12.5 mg/kg/injection, schedule: Q04DX003 (ip), vehicle: saline); 118 % of control (dose: 25.0 mg/kg/injection, schedule: Q04DX003 (ip), vehicle: saline).
On to `CN1C(C)(C)CC(O)(C#N)CC1(C)C`, for which the T/C (dose: 50.0 mg/kg/injection, schedule: Q01DX005 (ip), vehicle: saline) was 100 % of control; the T/C (dose: 100.0 mg/kg/injection, schedule: Q01DX005 (ip), vehicle: saline) was 98 % of control; the T/C (dose: 200.0 mg/kg/injection, schedule: Q01DX005 (ip), vehicle: saline) is 103 % of control.
`CC(S)c1nc2ccccc2[nH]1` (centres undefined): the T/C runs as follows: (dose: 100.0 mg/kg/injection, schedule: Q01DX001 (ip), vehicle: Klucel + Tween-80) 100 % of control; (dose: 200.0 mg/kg/injection, schedule: Q01DX001 (ip), vehicle: Klucel + Tween-80) 97 % of control; (dose: 400.0 mg/kg/injection, schedule: Q01DX001 (ip), vehicle: Klucel + Tween-80) 111 % of control.
On to `COCc1ccccc1-n1nccc1S(C)=O` (centres undefined), for which the T/C under setting [1] is 106 % of control, the T/C under setting [2] is 98 % of control and the T/C under setting [3] was 106 % of control.
`CC(C)c1ccc(OC(=O)Nc2c(Cl)cccc2Cl)cc1`: the T/C runs as follows: under setting [1], 108 % of control; under setting [2], 120 % of control; under setting [3], 115 % of control.
As to `O=[N+]([O-])c1cc(S(=O)(=O)O)c2cccnc2c1O`, the T/C is 86 % of control (dose: 100.0 mg/kg/injection, schedule: Q04DX003 (ip), vehicle: saline); 89 % of control (dose: 200.0 mg/kg/injection, schedule: Q04DX003 (ip), vehicle: saline); 88 % of control (dose: 400.0 mg/kg/injection, schedule: Q04DX003 (ip), vehicle: saline).
In the case of `O=C(O)c1cocc1C(=O)O`, the T/C was 99 % of control (dose: 60.0 mg/kg/injection, schedule: Q01DX005 (ip), vehicle: saline) and 86 % of control (dose: 120.0 mg/kg/injection, schedule: Q01DX005 (ip), vehicle: saline).
As for `NNc1ccc(N(CCO)CCO)nn1`, the T/C is 93 % of control under setting [4]; 100 % of control under setting [5]; 105 % of control (dose: 200.0 mg/kg/injection, schedule: Q01DX009 (ip), vehicle: saline).
As for `ClC(Cl)(Cl)C(=NN=C(C(Cl)(Cl)Cl)C(Cl)(Cl)Cl)C(Cl)(Cl)Cl`, the T/C (dose: 15.0 mg/kg/injection, schedule: Q01DX005 (ip), vehicle: saline with Tween-80) was 106 % of control; the T/C (dose: 30.0 mg/kg/injection, schedule: Q01DX005 (ip), vehicle: saline with Tween-80) is 103 % of control; the T/C under setting [1] was 100 % of control and 109 % of control.
For `C[C@]12CCCC[C@@H]1CC[C@@H]1[C@@H]2[C@@H](O)C[C@@]2(C)[C@H]1CC[C@]2(C)O`, the T/C is, setting by setting: (dose: 100.0 mg/kg/injection, schedule: Q04DX003 (ip), vehicle: saline with Tween-80) 100 % of control; (dose: 200.0 mg/kg/injection, schedule: Q04DX003 (ip), vehicle: saline with Tween-80) 100 % of control.
Consider `COc1cccc(N=C(C)C2C(=O)c3ccccc3C2=O)c1`, for which the T/C was 109 % of control under setting [6], 100 % of control under setting [7] and 95 % of control under setting [8].
For the compound `Cc1cc(NC(=O)c2ccc(NC(=O)c3ccc(N)cc3)cc2)ccc1N=Nc1ccc2c(O)c(N=Nc3ccc(S(=O)(=O)O)cc3C)c(S(=O)(=O)O)cc2c1`, the T/C reads like this: under setting [6], 104 % of control and 107 % of control and 108 % of control; under setting [7], 105 % of control and 112 % of control and 117 % of control; under setting [8], 107 % of control and 114 % of control; (dose: 400.0 mg/kg/injection, schedule: Q01DX005 (ip), vehicle: saline with Tween-80) 113 % of control and 119 % of control.
`C=C(C)C(=O)Nc1ccc(NC(C)C)cc1`: the T/C runs as follows: (dose: 12.5 mg/kg/injection, schedule: Q01DX009 (ip), vehicle: saline with Tween-80) 115 % of control; (dose: 12.5 mg/kg/injection, schedule: Q01DX009 (ip), vehicle: saline) 105 % of control; (dose: 25.0 mg/kg/injection, schedule: Q01DX009 (ip), vehicle: saline with Tween-80) 108 % of control; (dose: 25.0 mg/kg/injection, schedule: Q01DX009 (ip), vehicle: saline) 97 % of control; (dose: 50.0 mg/kg/injection, schedule: Q01DX009 (ip), vehicle: saline with Tween-80) 93 % of control and 96 % of control; under setting [4], 90 % of control. Moreover, under setting [5], the T/C was 102 % of control.
Regarding `CC(=O)Oc1ccc2c(c1)C(=O)CCCCCCC(=O)O2`, the T/C (dose: 100.0 mg/kg/injection, schedule: Q01DX001 (ip), vehicle: saline) is 101 % of control; the T/C (dose: 200.0 mg/kg/injection, schedule: Q01DX001 (ip), vehicle: saline) is 95 % of control; the T/C (dose: 400.0 mg/kg/injection, schedule: Q01DX001 (ip), vehicle: saline) was 105 % of control.
Take `CCCCCCCCCCCCCC[N+]1(CC)CCCCC1`: the T/C is 113 % of control and 115 % of control (dose: 0.19 mg/kg/injection, schedule: Q01DX009 (ip), vehicle: saline); 111 % of control and 113 % of control and 118 % of control (dose: 0.39 mg/kg/injection, schedule: Q01DX009 (ip), vehicle: saline); 120 % of control and 94 % of control (dose: 0.78 mg/kg/injection, schedule: Q01DX009 (ip), vehicle: saline); 109 % of control (dose: 1.56 mg/kg/injection, schedule: Q01DX009 (ip), vehicle: saline); 113 % of control (dose: 1.56 mg/kg/injection, schedule: Q04DX003 (ip), vehicle: saline).
In the case of `COc1cccc2c1C(=O)c1c(O)c3c(c(O)c1C2=O)C[C@@](O)(C(=O)COc1ccccc1)C[C@@H]3OC1CC(N)C(O)C(C)O1` (some centres undefined), the T/C was 151 % of control and 169 % of control (dose: 1.56 mg/kg/injection, schedule: Q01DX009 (ip), vehicle: water); 155 % of control and 179 % of control (dose: 3.13 mg/kg/injection, schedule: Q01DX009 (ip), vehicle: water); 174 % of control and 186 % of control (dose: 6.25 mg/kg/injection, schedule: Q01DX009 (ip), vehicle: water); 176 % of control and 179 % of control (dose: 12.5 mg/kg/injection, schedule: Q01DX009 (ip), vehicle: water).
In the case of `O=C(CNC(=O)n1ccnc1)N/N=C/c1ccco1`, the T/C is 95 % of control under setting [6], 92 % of control under setting [7] and 89 % of control under setting [8].
With `O=[N+]([O-])c1cc2c(cc1C1OCCO1)OCO2`, the T/C (dose: 25.0 mg/kg/injection, schedule: Q01DX009 (ip), vehicle: other) was 102 % of control; the T/C (dose: 50.0 mg/kg/injection, schedule: Q01DX009 (ip), vehicle: other) was 100 % of control; the T/C (dose: 100.0 mg/kg/injection, schedule: Q01DX009 (ip), vehicle: other) was 100 % of control; the T/C (dose: 200.0 mg/kg/injection, schedule: Q01DX009 (ip), vehicle: other) is 98 % of control; the T/C (dose: 400.0 mg/kg/injection, schedule: Q01DX009 (ip), vehicle: other) is 98 % of control.
Regarding `CCN(CC)CCOCc1ccc2c(c1)OCO2`, the T/C runs as follows: (dose: 25.0 mg/kg/injection, schedule: Q01DX005 (ip), vehicle: saline with Tween-80) 113 % of control; under setting [6], 113 % of control; under setting [7], 111 % of control.
Consider `CCC1(C(C)C)NC(=O)NC1=O` (centres undefined), for which the T/C is, setting by setting: (dose: 50.0 mg/kg/injection, schedule: Q01DX005 (ip), vehicle: Klucel (hydroxypropylcellulose) (HPC)) 106 % of control; (dose: 100.0 mg/kg/injection, schedule: Q01DX005 (ip), vehicle: Klucel (hydroxypropylcellulose) (HPC)) 104 % of control; (dose: 200.0 mg/kg/injection, schedule: Q01DX005 (ip), vehicle: Klucel (hydroxypropylcellulose) (HPC)) 106 % of control.
`O=c1cc(CC2(O)CCCCC2)c2ccccc2[nH]1`: the T/C was 95 % of control (dose: 60.0 mg/kg/injection, schedule: Q01DX005 (ip), vehicle: Klucel (hydroxypropylcellulose) (HPC)); 102 % of control (dose: 120.0 mg/kg/injection, schedule: Q01DX005 (ip), vehicle: Klucel (hydroxypropylcellulose) (HPC)); 95 % of control (dose: 240.0 mg/kg/injection, schedule: Q01DX005 (ip), vehicle: Klucel (hydroxypropylcellulose) (HPC)).
For the compound `Nc1nc2ccc(Br)cc2s1`, the T/C is 97 % of control (dose: 50.0 mg/kg/injection, schedule: Q01DX009 (ip), vehicle: suspension in saline); 86 % of control under setting [5]; 102 % of control (dose: 100.0 mg/kg/injection, schedule: Q01DX009 (ip), vehicle: suspension in saline).
